Test results reported in PubChem BioAssay AID1963424 (Molecular Pharmacology Branch, DTP, NCI, 2024).
pIC50: −log10 of the molar value. Several values for one entry are separate records, joined by “and”; a condition that tells them apart may be missing. Identical values can stand only once.

Test system: 327498-153-R-J2-PDC complex spheroid growth, % test/control
Experiment: Anticancer human tumor 327498-153-R-J2-PDC patient-derived uterine carcinosarcoma cell line growth inhibition [Asc]
Settings: for viability, T/C: stronger effect = lower value; active = viability on the fitted dose curve at most 10% of control; inactive = the rest
Procedure: Multicellular complex tumor spheroid response to apoptosis pathway targeting inhibitors Alrizomadlin, Pelcitoclax, and Dasminapant in combination with a variety of drugs and investigational agents in selected tumor cell lines
The MDM2 inhibitor alrizomadlin, the Bcl-2/Bcl-xL inhibitor pelcitoclax, and the IAPs inhibitor dasminapant were evaluated both individually and in combination with standard of care and investigational anticancer small molecules within a complex spheroid model of solid tumors. . Complex spheroids include a stromal component modeled by human endothelial cells (HUVEC) and fibroblasts modeled by human mesenchymal stem cells (MSCs). The concentration ranges selected for each drug and investigational agent were based upon clinically achievable concentrations if the clinical Cmax of the agent was known.
Compounds. The drugs and investigational agents: alrizomadlin (APG-115; NSC831270), pelcitoclax (APG-1252; NSC835773), dasminapant (APG-1387;NSC834197), TAK-243 (NSC785004), copanlisib (NSC809693), olaparib (NSC753686), talazoparib (NSC767125), cobimetinib (NSC 768068), eltanexor (KPT-8602, NSC 794443), abemaciclib (NSC 768073), sotorasib (NSC818433), adagrasib (NSC 831453), MRTX-1133 (NSC 836407), Iadademestat (ORY1001, NSC 806812), and RMC-4630 (NSC839698), were obtained from the NCI Developmental Therapeutics Program Chemical Repository. The FDA-approved anticancer drug set is available from the Developmental Therapeutics Program at https://dtp.cancer.gov/organization/dscb/obtaining/available plates.htm. […] The stock solutions were prepared in dimethyl sulfoxide (DMSO, Sigma-Aldrich, St. Louis, MO, cat. D2650) at 800-fold the tested concentration and stored at -70 degrees C prior to their use. All drugs and investigational agents were tested over a range starting from a high concentration at or near the clinical Cmax and decreasing in half-log increments. If the clinical Cmax for an agent had not been determined, the highest concentration tested was 10 microM.
The patient-derived cancer (PDC) cell lines include five colon adenocarcinomas: 186277-243-T-J2-PDC, 616215-338-R-J1-PDC, 439559-082-T-J2-PDC, 463943-066-T-J2-PDC, and 519858-162-T-J1-PDC; three pancreatic carcinomas: 323965-272-R-J2-PDC, 521955-158-R6-J3-PDC, and 521955-158-R2-J5-PDC; two uterine sarcomas: 327498-152-R-J2-PDC and 993429-296-R-J1-PDC; two rhabdomyosarcomas: 755483-174-R-J1-PDC and 772245-204-R-J1-PDC; two soft tissue sarcomas: 126254-015-R-J1-PDC and 494315-158-R-J1-PDC; two malignant fibrous histiocytomas: 317291-083-R-J1-PDC and 596521-263-R-J1-PDC; two breast carcinomas: 171881-019-R-J1-PDC and 885512-296-R-J2-PDC; and one ovarian carcinoma: 6556581-035-R-J-PDC were obtained from the NCI PDMR, (https://pdmr.cancer.gov). The established cell lines HSSY-2 synovial sarcoma (RRID:CVCL 8719), SYO-1 synovial sarcoma (RRID:CVCL_7146), MPNST malignant peripheral neural sheath tumor were obtained from the Sloan Kettering Institute. The following established cell lines were purchased from the American Type Culture Collection (ATCC, Manassas, VA), Sor the received from the NCI repository:, PANC-1 pancreatic carcinoma (CRL-1469, RRID:CVCL_0480), OVCAR-5 ovarian carcinoma (RRID:CVCL_1628), OVCAR-8 ovarian carcinoma (RRID:CVCL_1629), , MCF-7 breast carcinoma (CRL-12584, RRID:CVCL_0031), MDA-MB-231 breast carcinoma (CRL-12532, RRID:CVCL_0062), NCI-H1876 small cell lung carcinoma (CRL-5902, RRID:CVCL_1503), NCI-H510A small cell lung carcinoma (HTB-184, RRID:CVCL_1565), NCI-H1417 (CRL-5869, RRID:CVCL_1469), and NCI-H196 small cell lung carcinoma (CRL-5823, RRID:CVCL_1509). Dr. Peter Houghton (Greehey Children's Cancer Research Institute, University of Texas Health Science Center, San Antonio, TX) provided Rh-18 rhabdomyosarcoma (RRID:CVCL_1659). Pooled donor human umbilical vein endothelial cells (HUVEC, Lonza, cat. CC-2519) and human mesenchymal stem cells (hMSC, Lonza, cat. PT-2501) were purchased from Lonza (Walkersville, MD).
Cell Culture. […]
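Also: spheroids exposed to compound for 7 days after 3 days of growth.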
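For viability, T/C in this document: 100% = DMSO vehicle control wells.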

CNC(C)C(=O)NC1CN(S(=O)(=O)c2cccc(S(=O)(=O)N3CCC4CCC(C(=O)NC(c5ccccc5)c5ccccc5)N4C(=O)C(NC(=O)C(C)NC)C3)c2)CCC2CCC(C(=O)NC(c3ccccc3)c3ccccc3)N2C1=O (stereo not given)
inactive: viability, T/C (compound 0.00316 µM) 95.8% and 104% | viability, T/C (compound 0.01 µM) 96.8% [middle of 15 runs] | viability, T/C (compound 0.0316 µM) 98.1% [middle of 15 runs] | viability, T/C (compound 0.1 µM) 99.2% [middle of 15 runs] | viability, T/C (compound 0.316 µM) 99.9% [middle of 15 runs] | viability, T/C (compound 1 µM) 96.2% [middle of 15 runs]
< 6.00: pIC50 (compound alone, run of 10/03/2022) | pIC50 (curve of compound)

C=C(F)C(=O)N1CCN(c2nc(OCC3CCCN3C)nc3c2CCN(c2cccc4cccc(Cl)c24)C3)CC1CC#N (stereo not given) + CCN1C(C(=O)NC23CCC(C(=O)O)(CC2)CC3)C(c2cccc(Cl)c2F)C2(C(=O)Nc3cc(Cl)ccc32)C12CCCCC2
> 7.50: pIC50 (curve of first compound, second compound 0.0949 µM) | pIC50 (curve of first compound, second compound 0.3 µM) | pIC50 (curve of first compound, second compound 0.949 µM) | pIC50 (curve of first compound, second compound 3 µM)
inactive: viability, T/C (second compound 0.03 µM, first compound 0.0316 µM) 56.4% | viability, T/C (second compound 0.03 µM, first compound 0.1 µM) 55.3% | viability, T/C (second compound 0.03 µM, first compound 0.316 µM) 59.8% | viability, T/C (second compound 0.03 µM, first compound 1 µM) 42.5% | viability, T/C (second compound 0.0949 µM, first compound 0.0316 µM) 49.1% | viability, T/C (second compound 0.0949 µM, first compound 0.1 µM) 38.6% | viability, T/C (second compound 0.0949 µM, first compound 0.316 µM) 38.5% | viability, T/C (second compound 0.0949 µM, first compound 1 µM) 25.4% | viability, T/C (second compound 0.3 µM, first compound 0.0316 µM) 23.3% | viability, T/C (second compound 0.3 µM, first compound 0.1 µM) 18.5% | viability, T/C (second compound 0.3 µM, first compound 0.316 µM) 12.5%
6.26: pIC50 (curve of first compound, second compound 0.03 µM)
active: viability, T/C (second compound 0.03 µM, first compound 3.16 µM) 6.79% | viability, T/C (second compound 0.03 µM, first compound 10 µM) 0.13% | viability, T/C (second compound 0.0949 µM, first compound 3.16 µM) 0.52% | viability, T/C (second compound 0.0949 µM, first compound 10 µM) 0.11% | viability, T/C (second compound 0.3 µM, first compound 1 µM) 10.9% | viability, T/C (second compound 0.3 µM, first compound 3.16 µM) 0.07% | viability, T/C (second compound 0.3 µM, first compound 10 µM) 0.11% | viability, T/C (second compound 0.949 µM, first compound 0.0316 µM) 6.62% | viability, T/C (second compound 0.949 µM, first compound 0.1 µM) 5.04% | viability, T/C (second compound 0.949 µM, first compound 0.316 µM) 5.41% | viability, T/C (second compound 0.949 µM, first compound 1 µM) 1.84% | viability, T/C (second compound 0.949 µM, first compound 3.16 µM) 0.03% | viability, T/C (second compound 0.949 µM, first compound 10 µM) 0.12% | viability, T/C (second compound 3 µM, first compound 0.0316 µM) 1.83% | viability, T/C (second compound 3 µM, first compound 0.1 µM) 2.77% | viability, T/C (second compound 3 µM, first compound 0.316 µM) 1.2% | viability, T/C (second compound 3 µM, first compound 1 µM) 0.65% | viability, T/C (second compound 3 µM, first compound 3.16 µM) 0.14% | viability, T/C (second compound 3 µM, first compound 10 µM) 1.2%

C=C(F)C(=O)N1CCN(c2nc(OCC3CCCN3C)nc3c2CCN(c2cccc4cccc(Cl)c24)C3)CC1CC#N (stereo not given) + CNC(C)C(=O)NC1CN(S(=O)(=O)c2cccc(S(=O)(=O)N3CCC4CCC(C(=O)NC(c5ccccc5)c5ccccc5)N4C(=O)C(NC(=O)C(C)NC)C3)c2)CCC2CCC(C(=O)NC(c3ccccc3)c3ccccc3)N2C1=O
5.92: pIC50 (curve of first compound, second compound 0.316 µM)
5.93: pIC50 (curve of first compound, second compound 0.0316 µM)
active: viability, T/C (second compound 0.01 µM, first compound 10 µM) 0.14% | viability, T/C (second compound 0.0316 µM, first compound 10 µM) 0.14% | viability, T/C (second compound 0.1 µM, first compound 10 µM) 0.13% | viability, T/C (second compound 0.316 µM, first compound 10 µM) 0.14% | viability, T/C (second compound 1 µM, first compound 10 µM) 0.21%
6.01: pIC50 (curve of first compound, second compound 1 µM)
5.87: pIC50 (curve of first compound, second compound 0.1 µM)
5.88: pIC50 (curve of first compound, second compound 0.01 µM)
inactive: viability, T/C (second compound 0.01 µM, first compound 0.0316 µM) 74.3% | viability, T/C (second compound 0.01 µM, first compound 0.1 µM) 71% | viability, T/C (second compound 0.01 µM, first compound 0.316 µM) 58.4% | viability, T/C (second compound 0.01 µM, first compound 1 µM) 61.6% | viability, T/C (second compound 0.01 µM, first compound 3.16 µM) 14.5% | viability, T/C (second compound 0.0316 µM, first compound 0.0316 µM) 73.2% | viability, T/C (second compound 0.0316 µM, first compound 0.1 µM) 71.6% | viability, T/C (second compound 0.0316 µM, first compound 0.316 µM) 64.5% | viability, T/C (second compound 0.0316 µM, first compound 1 µM) 56.8% | viability, T/C (second compound 0.0316 µM, first compound 3.16 µM) 16.2% | viability, T/C (second compound 0.1 µM, first compound 0.0316 µM) 76% | viability, T/C (second compound 0.1 µM, first compound 0.1 µM) 67.6% | viability, T/C (second compound 0.1 µM, first compound 0.316 µM) 74.3% | viability, T/C (second compound 0.1 µM, first compound 1 µM) 62.6% | viability, T/C (second compound 0.1 µM, first compound 3.16 µM) 14.1% | viability, T/C (second compound 0.316 µM, first compound 0.0316 µM) 75.3% | viability, T/C (second compound 0.316 µM, first compound 0.1 µM) 74.7% | viability, T/C (second compound 0.316 µM, first compound 0.316 µM) 66% | viability, T/C (second compound 0.316 µM, first compound 1 µM) 58.1% | viability, T/C (second compound 0.316 µM, first compound 3.16 µM) 11.2% | viability, T/C (second compound 1 µM, first compound 0.0316 µM) 86% | viability, T/C (second compound 1 µM, first compound 0.1 µM) 78.8% | viability, T/C (second compound 1 µM, first compound 0.316 µM) 66.3% | viability, T/C (second compound 1 µM, first compound 1 µM) 55.5% | viability, T/C (second compound 1 µM, first compound 3.16 µM) 15%

COc1c(OCCCN2CCOCC2)ccc2c3n(c(=NC(=O)c4cnc(N)nc4)nc12)CCN3
inactive: viability, T/C (compound 0.00316 µM) 93.8% and 96.5% and 105% | viability, T/C (compound 0.01 µM) 92% and 91.4% and 97.5% | viability, T/C (compound 0.0316 µM) 71.2% and 78.3% and 85.6% | viability, T/C (compound 0.1 µM) 51.4% and 57.8% and 60.5% | viability, T/C (compound 0.316 µM) 23.9% and 27.6% and 26.7%
active: viability, T/C (compound 1 µM) 6.91% and 7.65% and 9.2%
7.00 and 6.88 and 6.85: pIC50 (curve of compound)
